The text below walks through data of patent US20060280723A1 (priority 2003, published 2006).

Data set [1] concerns SARS-HCoV. To be noted: Lee et al., 2003 and Poutanen et al.; cited from earlier work.
The next data set concerns SARS-HCoV 2003VA2774. It counts as cell-based, SARS human coronavirus (SARS-HCoV).
Data set [2] deals with Vero E6 cells. Kind of data set: Cytotoxicity on Vero E6 cells without viral challenge. It counts as cell-based, African Green Monkey. To be noted: three days, inverted microscope. How it is done:
To determine cytotoxicity, 100 microlitres of serial 10-fold dilutions of each treatment were incubated with 100 microlitres of Vero E6 cells giving a final cell count of 20,000 cells per well in a 96-well plate, without viral challenge.

Data set [3] concerns SARS-HCoV. To be noted: literature; cited from earlier work.
Data set [4] has as its system Vero E6 cells.
For the next data set, the system named is Semliki Forest Virus. Nature of the data set: Protection of Vero E6 cells from Semliki Forest Virus cytopathic effect (crystal violet). It counts as cell-based, Semliki Forest Virus (SFV). How it is done: Vero E6 cells were seeded in 96-well plate, at a density of 10000 cells per well. […] Media was removed from cells, and cells were washed in 1× PBS, then fixed for 10 minutes at room temperature in 4% paraformaldehyde in PBS. Paraformaldehyde was removed and cells were stained with 0.2% crystal violet in 2% ethanol for 10 minutes at room temperature. Stained plates were washed and degree of colouration was quantified at 630 nm using an ELISA reader. Triplicate data is presented in graph format (FIG. 2).
Background: Cytopathic effects are the visible damage that an infection or toxin causes in cultured cells.

The subject of data set [5] is SARS-HCoV, strain Frankfurt-1.
For data set [6], the system named is 'common cold' coronaviruses. To be noted: laboratory tests; cited from earlier work.
Setting [7] is: 10^4 pfu/well, MOI 0.5, Vero E6 cells.

Like-named read-outs stand apart in the source and are kept apart here.

As for `CCOC(=O)C1=C[C@@H](OC(CC)CC)[C@H](NC(C)=O)[C@@H](N)C1` [Oseltamivir], in the data set with SARS-HCoV [1], the “Therapeutic benefit in SARS-HCoV infection” value was “has not shown any therapeutic benefit”.

For the molecule `NC(=O)c1ncn([C@@H]2O[C@H](CO)[C@@H](O)[C@H]2O)n1` [Ribavirin], the “CIA100 (reached: Yes)” value with SARS-HCoV 2003VA2774 (setting [7]) is “Yes”. The “Concentration at which complete cytopathic effect” value in the data set on SARS-HCoV 2003VA2774 (setting [7]) was 5,000 μg/ml. Further, the “Inhibition of cytopathic effect” value is “inhibitory activity at all viral titres” with SARS-HCoV 2003VA2774 (cytopathic endpoint assay, Vero E6 cells) and “Complete inhibition” in the data set on SARS-HCoV 2003VA2774 (high viral challenge 10^4 pfu/well, MOI 0.5). Further, the “CIA100 (concentration inhibiting cytopathic effect in all four set-ups)” value was 500 µg/mL with SARS-HCoV 2003VA2774 (virus load 100 pfu/well) and 5,000 μg/ml in the data set with SARS-HCoV 2003VA2774 (virus load 1,000 pfu/well). In addition, the “Cytotoxicity at inhibitory concentration” value with Vero E6 cells [2] is recorded as “showed cytotoxicity”. For the same molecule, the “Efficacy against SARS-HCoV in vitro” value in the data set on SARS-HCoV [3] is reported as “negative results”.

As to “Intron A: recombinant alpha IFN product from Schering Plough (IFN-alpha 2b)”, in the data set with SARS-HCoV 2003VA2774, the “Concentration up to which cells were not fully protected from SARS-HCoV infection” value is above 100000 IU/ml and the “Inhibition of cytopathic effect” value is “did not show significant inhibition”. In the data set on Vero E6 cells [4], the “Tendency to increase baseline levels in the cytotoxicity assay” value was “no similar tendency”. Further, the Loss of protection result with Semliki Forest Virus (at 39 IU/ml) is reported as “equivalent loss of protection”. Moreover, the Degree of protection result with Semliki Forest Virus (at 625 IU/ml) is given as “same degree of protection”. Also, in data set [5], the “IC50 Exp. Type 1, 10 TCID50” value is above 3.125 IU/ml; the “IC50 Exp. Type 1, 100 TCID50” value was above 3.125 IU/ml; the “IL50 Exp. Type 2, 10 TCID50” value was above 3.125 IU/ml; the “IL50 Exp. Type 2, 100 TCID50” value is recorded as above 3.125 IU/ml.

B1: Cystatin C: a protease inhibitor found in human blood (protein, UniProt P01034 27-146, looked up)
Cystatin-C: SSPGKPPRLVGGPMDASVEEEGVRRALDFAVGEYNKASNDMYHSRALQVVRARKQIVAGVNYFLDVELGRTTCTKTQPNLDNCPFHDQPHLKRKAFCSFQIYAVPWQGTMTLSKSTCQDA
Regarding B1, in data set [6], the “Replication of 'common cold' coronaviruses” value was “found to block replication”.
